Measurements as given in the supplement of paper PMC10627819.

Columns and labels:
[1] = tested on: S. aureus DSM 20231; test: Bliss interaction score (quartile over a dose matrix) (fitness difference); higher = more antagonism (negative = synergy)
Method in brief: (§1)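 The Bliss score is observed minus expected fitness under the product model, reported as quartiles over technical, biological and donor/recipient replicates. Fitness is the OD595 at entry into stationary phase divided by the plate's robust no-drug mean and capped at 1. Single-drug fitness was inferred from combination data.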

[2] = tested on: B. subtilis 168; test: as above
Method in brief: as §1

[3] = tested on: S. aureus Newman; test: as above
Method in brief: as §1

[4] = tested on: S. pneumoniae D39V; test: as above
Method in brief: as §1

[5] = tested on: B. subtilis 168; test: fitness (endpoint OD595 vs no drug) (fraction); higher = more growth
Method in brief: (§2)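 Plates with 384 wells were inoculated at OD595 0.01 using 30 µl of TSB, LB Lennox or CY, or 55 µl for S. pneumoniae. Incubation was at 37 °C, with OD595 measured every 30 min for 14 h. Fitness is the stationary-phase transition optical density over the robust mean of no-drug control wells, after first-reading background subtraction; it is capped at 1.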

[6] = tested on: S. pneumoniae D39V; test: as above
Method in brief: as §2
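For Bliss interaction score (quartile over a dose matrix) in this document: first quartile when negative (synergy) and third quartile when positive (antagonism).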

CC1=C(C(=O)O)N2C(=O)[C@@H](NC(=O)[C@H](N)c3ccccc3)[C@H]2SC1 [Cephalexin] + CCC(C)C1C(=O)NC(=C)C(=O)NC(C(=O)NC(CSCC(C(=O)N1)NC(=O)/C(=C/C)/NC(=O)C(C(C)CC)N)C(=O)NC2C(SCC(NC(=O)CNC(=O)C3CCCN3C2=O)C(=O)NC(CCCCN)C(=O)NC4C(SCC(NC(=O)CNC(=O)C(NC(=O)C(NC(=O)C(NC(=O)CNC4=O)C)CC(C)C)CCSC)C(=O)NC(CC(=O)N)C(=O)NC(CCSC)C(=O)NC(CCCCN)C(=O)NC5C(SCC6C(=O)NC(C(=O)NC(CSC(C(C(=O)N6)NC(=O)C(NC5=O)C)C)C(=O)NC(CO)C(=O)NC(C(C)CC)C(=O)NC(CC7=CN=CN7)C(=O)NC(C(C)C)C(=O)NC(=C)C(=O)NC(CCCCN)C(=O)O)CC8=CN=CN8)C)C)C)CC(C)C [Nisin]
main component drawn
Conditions	Bliss interaction score
[1]	0.0845
[2]	0.0739
[3]	0.0391
[4]	-0.0433

fitness, one replicate, main component drawn
Conditions	first compound 0.125 µg/mL	first compound 0.25 µg/mL	first compound 0.5 µg/mL	first compound 1 µg/mL
[5], partner 0.5 µg/mL	0.827	0.849	0.85	–
[5], partner 1 µg/mL	0.819	0.833	0.845	–
[5], partner 1.25 µg/mL	–	≥ 1	0.914	0.959
[5], partner 1.6 µg/mL	–	0.8	0.735	0.85
[5], partner 2 µg/mL	0.564	0.546	0.643	–
[5], partner 2.5 µg/mL	–	0.323	0.638	0.621
[5], partner 3.2 µg/mL	–	0.0408	0.05	0.038
[5], partner 4 µg/mL	0.0357	0.0253	0.0342	–
[5], partner 5 µg/mL	–	0.0428	0.0078	0.0511
[5], partner 6.4 µg/mL	–	0.055	0.052	0.0405
[5], partner 8 µg/mL	0.0286	0.0256	0.0219	–
[5], partner 16 µg/mL	0.0223	0.0191	0.051	–
[6], partner 1.6 µg/mL	0.111	0.067	0.12	–
[6], partner 3.2 µg/mL	0.0257	0.0254	0.0215	–
[6], partner 6.4 µg/mL	0.0326	0.0252	0.0194	–

fitness, [6], main component drawn
Conditions	first compound 1 µg/mL	first compound 2 µg/mL	first compound 4 µg/mL
partner 0.4275 µg/mL	–	–	0.0461
partner 0.855 µg/mL	–	0.0896	0.05
partner 1.71 µg/mL	0.0562	0.0571	0.0769

CC[C@H]1OC(=O)[C@H](C)[C@@H](O[C@H]2C[C@@](C)(OC)[C@@H](O)[C@H](C)O2)[C@H](C)[C@@H](O[C@@H]2O[C@H](C)C[C@H](N(C)C)[C@H]2O)[C@](C)(O)C[C@@H](C)CN(C)[C@H](C)[C@@H](O)[C@]1(C)O [Azithromycin] + C[C@H]1COc2c(N3CCN(C)CC3)c(F)cc3c(=O)c(C(=O)O)cn1c23 [Levofloxacin]
Conditions	Bliss interaction score
[1]	0.0911
[2]	0.0413
[3]	0.0787
[4]	0.0528

fitness, [5]
Conditions	partner 0.002 µg/mL	partner 0.0039 µg/mL	partner 0.0078 µg/mL	partner 0.0312 µg/mL	partner 0.0625 µg/mL	partner 0.125 µg/mL
first compound 0.25 µg/mL	0.96	0.945	0.969	0.0317	0.0311	0.0281
first compound 0.5 µg/mL	0.848	0.808	0.862	0.0211	0.0396	0.0302
first compound 1 µg/mL	–	–	–	0.0198	0.0226	0.0241

fitness, [5], one replicate
Conditions	first compound 0.5 µg/mL	first compound 1 µg/mL	first compound 2 µg/mL
partner 0.001 µg/mL	0.925	0.906	0.209
partner 0.002 µg/mL	–	–	0.029
partner 0.0039 µg/mL	–	–	0.0299

CC[C@H]1OC(=O)[C@H](C)[C@@H](O[C@H]2C[C@@](C)(OC)[C@@H](O)[C@H](C)O2)[C@H](C)[C@@H](O[C@@H]2O[C@H](C)C[C@H](N(C)C)[C@H]2O)[C@](C)(O)C[C@@H](C)CN(C)[C@H](C)[C@@H](O)[C@]1(C)O [Azithromycin] + C[C@H]1c2cccc(O)c2C(=O)C2=C(O)[C@]3(O)C(=O)C(C(N)=O)=C(O)[C@@H](N(C)C)[C@@H]3[C@@H](O)[C@@H]21 [Doxycycline]
Conditions	Bliss interaction score
[1]	-0.261
[2]	-0.362
[3]	-0.153
[4]	-0.139

Conditions	fitness
[5], first compound 0.25 µg/mL, partner 0.02 µg/mL	0.816

[5], first compound 2 µg/mL, one replicate
Conditions	fitness
partner 0.02 µg/mL	0.0856
partner 0.04 µg/mL	0.0565
partner 0.08 µg/mL	0.115

CC1=C(C(=O)O)N2C(=O)[C@@H](NC(=O)[C@H](N)c3ccccc3)[C@H]2SC1 [Cephalexin] + CCC[C@@H]1C[C@@H](C(=O)N[C@@H]([C@H]2O[C@H](SC)[C@H](O)[C@@H](O)[C@H]2O)[C@@H](C)O)N(C)C1 [Lincomycin]
Conditions	Bliss interaction score
[1]	0.101
[2]	-0.0209
[3]	0.0797
[4]	0.159

Conditions	fitness
[5], first compound 0.125 µg/mL, partner 0.1 µg/mL	0.901
[5], first compound 0.125 µg/mL, partner 0.2 µg/mL	0.876
[5], first compound 0.125 µg/mL, partner 0.4 µg/mL	0.852
[5], first compound 0.25 µg/mL, partner 0.1 µg/mL	0.941
[5], first compound 0.25 µg/mL, partner 0.2 µg/mL	0.937
[5], first compound 0.25 µg/mL, partner 0.4 µg/mL	0.913
[5], first compound 0.5 µg/mL, partner 0.1 µg/mL	0.939
[5], first compound 0.5 µg/mL, partner 0.2 µg/mL	0.901
[5], first compound 0.5 µg/mL, partner 0.4 µg/mL	0.852
[6], first compound 1 µg/mL, partner 0.215 µg/mL	0.832
[6], first compound 1 µg/mL, partner 0.43 µg/mL	0.716
[6], first compound 1 µg/mL, partner 0.86 µg/mL	0.403
[6], first compound 2 µg/mL, partner 0.43 µg/mL	0.373
[6], first compound 2 µg/mL, partner 0.86 µg/mL	0.176
[6], first compound 4 µg/mL, partner 0.215 µg/mL	0.0258
[6], first compound 4 µg/mL, partner 0.43 µg/mL	0.0283
[6], first compound 4 µg/mL, partner 0.86 µg/mL	0.0358

fitness, one replicate
Conditions	partner 0.1 µg/mL	partner 0.2 µg/mL	partner 0.4 µg/mL	partner 0.8 µg/mL
[5], first compound 1 µg/mL	≥ 1	≥ 1	≥ 1	–
[6], first compound 0.125 µg/mL	–	0.722	0.663	0.206
[6], first compound 0.25 µg/mL	–	0.759	0.643	0.304
[6], first compound 0.5 µg/mL	–	0.786	0.702	0.288
